Assay results taken from patent US20140248634A1, “VIMENTIN AS A BIOMARKER FOR THE PROGRESSION OF MYELOPROLIFERATIVE NEOPLASMS” (University of Florida Research Foundation, priority 2011, published 2014).
Entries after “also recorded” stand apart in the source; their conditions may differ. Starred links: 1 amine or outer side, 2 acyl side, 3 side chain; linkers in the order of their positions; H or OH if unused. Non-standard residues stand in square brackets, D forms with d. Residues, ends and D or L forms follow the SMILES beside them. *: point of attachment. hPhe = N[C@@H](CCc1ccccc1)C(=O)O; Morpholide = C1CN(*)CCO1; Cbz = O=C(OCc1ccccc1)*; CO = O=C([*:1])[*:2]; CH2F = FC*

Tests used:
vimentin [1] = assay: Western blotting of HEL cell lysates with anti-vimentin antibody; type: cell-based, human; settings: HEL cells; for effect on full-length vimentin, Jak2 vs non-Jak2 inhibitors: increasing concentrations; for cleavage of vimentin intermediate filaments in the viability samples: 30 μM G6 or 2% IDPN, 0, 6, 12, 24 or 48 hours
Description: Protein concentrations in the whole cell lysates were determined using a Bradford assay (Bio-Rad). Cell lysates were then resuspended in SDS sample buffer. Whole cell lysates (˜30 μg) were separated by SDS-PAGE and then transferred onto nitrocellulose membranes for analysis by western blotting.
(§1) Nitrocellulose membranes were first blocked with 5% milk/TBST solution at room temperature and then probed first with the different indicated primary antibodies overnight at 4° C. followed by the respective secondary antibodies (1:4000, GE Healthcare). The immuno-reactive bands were then visualized using the enhanced chemiluminescence system (Western Lightning Ultra, Perkin-Elmer). The following antibodies were used at the indicated dilutions: vimentin (Abcam and BD Biosciences, each at 1:500), STAT1 (Santa Cruz Biotechnology, 1:1000), and β-actin (Cell Signaling, 1:500).

vimentin [2] = assay: 2-D differential in gel electrophoresis (2-D DIGE) of HEL cell proteins; type: cell-based, human; settings: HEL cells, 25 μM, 12 hours, vs 0.25% DMSO
Description: HEL cells treated either with vehicle control DMSO or 25 μM G6 for 12 hours. The cell pellets were resuspended in ice cold buffer containing 0.3% SDS, 20 mM Tris pH 8.0, 100 mM DTT, 10 μl protease inhibitor cocktail III (Calbiochem), 5 mM MgCl2 and 250 units of benzonase. The cell suspension was homogenized by sonication. Protein was precipitated with 9 volumes of ice cold 10% trichloroacetic acid (TCA) in acetone overnight at 4° C. Precipitated proteins were then dissolved in solubilization buffer (7 M urea, 2 M thiourea, 4% CHAPS, 0.2% SDS and 20 mM Tris, pH 8.0). After centrifugation at 43,000 rpm for 30 min, solubilized protein in the supernatant was quantified using the EZQ Protein Assay Kit (Invitrogen). Proteins (100 μg per sample) were minimally labeled with CyDye (GE Healthcare) as per the manufacturer's protocol. An internal standard, which is loaded on every gel, was created by mixing equal amounts of protein from all samples. Proteins from the DMSO treated samples were labeled with Cy3 (green) and the G6 treated samples were labeled with Cy5 (red). The internal standard was labeled with Cy2 (blue). […] The digital image was then analyzed with DeCyder 2D version 7.0 GE Healthcare). Information from replicate gels was analyzed with BVA Module (Biological Variation Analysis). […]

caspase 3/7 = settings: HEL cells, previously showed (15); cited from earlier work
HEL cells = assay: Cell proliferation assay (trypan blue exclusion, hemocytometer); type: cell-based, human; settings: 30 μM G6 or 2% IDPN, 0, 6, 12, 24 or 48 hours, vs DMSO
Description: HEL cells were plated in 96-well plates and treated with either 0.25% DMSO, 30 μM G6 or 2% IDPN for the indicated periods of time. Cell viability was then assessed for each sample by trypan blue exclusion staining and hemocytometer.

[3] = system: Jak2-V617F-mediated HEL cell proliferation; settings: previously demonstrated (14,15); cited from earlier work
[4] = system: vimentin intermediate filaments; assay: Indirect immunofluorescence of vimentin in HEL cells; type: cell-based, human; settings: 25 μM, 24 and 36 hr
Description: HEL cells were cultured in RPMI in 100 mm dishes and treated with 25 μM G6 for the indicated periods of time. Following treatment, the cells were centrifuged, washed and resuspended in 1×PBS. Cells were then plated onto poly-L-lysine coated 8-chamber slides (Santa Cruz Biotechnology) and fixed at −20° C. in a mixture of 50% methanol and 50% acetone for 10 minutes. The fixed cells were then permeabilized with 0.2% Triton X-100 and blocked with 5% goat serum for 30 minutes at room temperature. The samples were then incubated overnight at 4° C. with a primary antibody of mouse anti-vimentin (BD Biosciences, 1:100). The next day, the cells were washed 4× with PBS at room temperature. The samples were then incubated with a FITC-conjugated anti-mouse secondary antibody (Santa Cruz Biotechnology) for one hour at room temperature. The cells were again washed with PBS, mounted with UltraCruz DAPI containing mounting media (Santa Cruz Biotechnology) and sealed with a cover slip. These cells were imaged using a 100× objective on an inverted fluorescence microscope (Olympus).

vimentin protein = assay: Xenograft model of Jak2-V617F expressing HEL cells in NOD/SCID mice, bone marrow anti-vimentin immunohistochemistry; type: in vivo; settings: NOD/SCID mice with HEL cells, 21 days
Text: The xenograft model of Jak2-V617F expressing HEL cells in NOD/SCID mice has been described previously (15). Briefly, 3 months old NOD/SCID mice were randomized into 5 groups (n=6 per group). […] All other groups received a single tail vein injection of 2×10^6 Jak2-V617F positive HEL cells. Three weeks after HEL cell injection, the mice developed symptoms of a fully penetrant bone marrow malignancy. The mice then began receiving intraperitoneal injections of either vehicle control (DMSO) or G6 at doses of 0.1, 1, and 10 mg/kg/day for the next 21 days. At the end of the three week treatment period, all groups of mice were euthanized and bone marrow tissues were fixed in 10% neutral-buffered formalin and embedded in paraffin.
Paraffin embedded bone marrow sections from each treatment group were analyzed by antivimentin immunohistochemistry. Antigen retrieval was carried out first by microwaving at 95° C. for 20 min in 1 mM EDTA-NaOH solution, pH 8.0. The section were then cooled, blocked with Protein Block (DAKO), and incubated with antivimentin antibody (Abcam, 1:100) for 2 hours at room temperature. Antigen-antibody comeplexes were detected using biotinylated secondary antibodies and streptavidin-peroxidase substrate (DAKO). Stained sections were then analyzed via a standard light microscope (Nikon) at 40× and 100× magnifications.

PARP = assay: Western blotting of HEL cell lysates for PARP cleavage; type: cell-based, human; settings: HEL cells, pretreated 4 hours, then 30 μM and 60 μM G6 for 24 hours
Description: Cells (˜107) were washed with two volumes of ice-cold PBS and then lysed in 0.8 ml of ice-cold RIPA buffer (20 mM Tris pH 7.5, 10% glycerol, 1% Triton X-100, 1% deoxycholic acid, 0.1% SDS, 2.5 mM EDTA, 50 mM NaF, 10 mM Na4P2O7, 4 mM benzamidine, and 10 μg/mL aprotinin). Protein concentrations in the whole cell lysates were determined using a Bradford assay (Bio-Rad). Cell lysates were then resuspended in SDS sample buffer. Whole cell lysates (˜30 μg) were separated by SDS-PAGE and then transferred onto nitrocellulose membranes for analysis by western blotting.
as §1

N#C/C(=C/c1ccc(O)c(O)c1)C(=O)NCc1ccccc1 [AG490]
effect on full-length vimentin, Jak2 vs non-Jak2 inhibitors (vimentin [1]; 24 hours): induced cleavage of vimentin dose-dependently

CC(=O)OCOC(=O)CN(CC(=O)OCOC(C)=O)c1ccccc1OCCOc1ccccc1N(CC(=O)OCOC(C)=O)CC(=O)OCOC(C)=O [BAPTA-AM]
effect of pretreatment on G6-induced cleavage of vimentin (vimentin [1]; 10 μM BAPTA-AM 2 hours, then 30 μM G6 for 24 hours): sufficient to protect vimentin from G6-induced cleavage

CC(C)[C@H](NC(=O)N1CCOCC1)C(=O)N[C@@H](CCc1ccccc1)C(=O)CF [Calpain Inhibitor V, Mu-Val-HPh-CH2F] ({Morpholide-CO}-Val-[hPhe]-CH2F)
effect of pretreatment on G6-induced cleavage of vimentin (vimentin [1]; calpain inhibitor pretreatment 4 hours, then increasing doses of G6 for 24 hours): prevented G6-induced cleavage of vimentin in a dose-dependent manner

CNc1ccc2oc(C[C@H]3O[C@@]4(CC[C@H]3C)O[C@H]([C@H](C)C(=O)c3ccc[nH]3)[C@H](C)C[C@H]4C)nc2c1C(=O)O [Compound A23187]
cleavage of vimentin (vimentin [1]; 10 μM, increasing periods of time): sufficient to induce cleavage of intermediate filament protein vimentin

CCC(=C(CC)c1ccc(O)c(CN(CC)CC)c1)c1ccc(O)c(CN(CC)CC)c1 [Compound G6, 4,4′-(hex-3-ene-3,4-diyl)bis(2-((diethylamino)methyl)phenol)]
vimentin protein expression (2-D DIGE) (vimentin [2]): down regulated; also recorded: significantly downregulated | full-length vimentin (western blot) (vimentin [1]; 25 μM, 24 h, vs DMSO): disappearance of full-length vimentin | cleavage of full-length vimentin as a function of time (vimentin [1]; 25 μM, varying lengths of time): cleaved into low molecular weight fragments | cleavage of vimentin intermediate filaments in the viability samples (vimentin [1]): time-dependent cleavage of vimentin intermediate filaments | effect on full-length vimentin, Jak2 vs non-Jak2 inhibitors (vimentin [1]; 24 hours): induced cleavage of vimentin dose-dependently | cleavage of full-length vimentin as a function of dose (vimentin [1]; increasing doses, 24 hours): cleaved into low molecular weight fragments | specificity for vimentin over other cytoskeletal proteins (β-actin reprobe) (vimentin [1]; same samples reprobed with anti-β-actin antibody): specificity of G6 for vimentin over other cytoskeletal proteins such as β-actin | caspase 3/7 activation (caspase 3/7): causes caspase 3/7 activation in a time-dependent manner | viable cell numbers (HEL cells): time dependently decreased viable cell numbers | Jak2-V617F-mediated HEL cell proliferation [3]: inhibits Jak2-V617F-mediated HEL cell proliferation | apoptosis of HEL cells [3]: induces apoptosis | cellular distribution of vimentin [4]: aggregated/localized in the perinuclear region of the cell | bone marrow vimentin protein level vs DMSO treated mice (vimentin protein; 0.1 mg/kg/day intraperitoneal): did not produce any observable change | bone marrow vimentin protein level vs DMSO treated mice (vimentin protein; 1 mg/kg/day intraperitoneal): clearly reduced the levels of vimentin protein | bone marrow vimentin protein level vs DMSO treated mice (vimentin protein; 10 mg/kg/day intraperitoneal): clearly reduced the levels of vimentin protein

N#CCCNCCC#N [IDPN, 3′,3′-iminodipropiontrile, reference compound]
cleavage of vimentin intermediate filaments in the viability samples (vimentin [1]): time-dependent cleavage of vimentin intermediate filaments | viable cell numbers (HEL cells): time dependently decreased viable cell numbers

COc1cccc(-c2cc(=O)c3ccccc3o2)c1N [PD98059]
effect on full-length vimentin, Jak2 vs non-Jak2 inhibitors (vimentin [1]; 24 hours): no effect on full-length vimentin

CC(C)(C)n1nc(-c2ccc(Cl)cc2)c2c(N)ncnc21 [PP2]
effect on full-length vimentin, Jak2 vs non-Jak2 inhibitors (vimentin [1]; 24 hours): no effect on full-length vimentin

C[C@@H]1C[C@@H]([C@H](O)CC2CC(=O)NC(=O)C2)C(=O)[C@@H](C)C1 [cycloheximide]
effect of pretreatment on G6-induced cleavage of vimentin (vimentin [1]; cycloheximide pretreatment 4 h, then increasing concentrations of G6 for 24 hours): not be blocked by pretreatment with cycloheximide

COC(=O)C[C@H](NC(=O)[C@H](C)NC(=O)[C@@H](NC(=O)OCc1ccccc1)C(C)C)C(=O)CF [zVAD-fmk, Z-VAD (OMe)-FMK] (Cbz-Val-Ala-Asp(OMe)-CH2F)
effect of pretreatment on G6-induced cleavage of PARP (PARP): able to block the G6-induced cleavage of PARP | effect of pretreatment on G6-induced cleavage of vimentin (vimentin [1]; pretreated 4 hours, then 30 μM and 60 μM G6 for 24 hours): unable to prevent G6-induced cleavage of vimentin

Jak Inhibitor I
effect on full-length vimentin, Jak2 vs non-Jak2 inhibitors (vimentin [1]; 24 hours): induced cleavage of vimentin dose-dependently
